The numbers were not newly measured in patent US20100136119A1, “CONTROLLED-RELEASE PREPARATION CONTAINING CILOSTAZOL AND PROCESS FOR THE PREPARATION THEREOF” (AMOREPACIFIC CORPORATION, priority 2007, published 2010), which cites them from elsewhere.

In the case of `O=C1CCc2cc(OCCCCc3nnnn3C3CCCCC3)ccc2N1` [Cilostazol], the solubility in water was at most 1 µg/mL.
